Measured values published in patent US12012391B1, “9-(2-hydroxyquinoline-3-yl)-10-[3-(dimethylamino)propyl]-3,4,6,7,9,10-hexahydroacridine-1,8(2H,5H)-dione as an antimicrobial compound” (KING FAISAL UNIVERSITY, priority 2023, dated 2024).

Experiments:
Conditions in all cases: after 10, 20, 40 and 60 minutes at all dilutions 1:100 to 1:800
E. Coli = test: Antimicrobial activity by agar dilution, E. Coli; assay type: cell-based, Escherichia coli
Protocol: (§1) The antimicrobial properties of the synthesized compound 9-(2-hydroxyquinoline-3-yl)-10-[3-(dimethylamino)propyl]-3,4,6,7,9,10-hexahydroacridine-1,8(2H,5H)-dione were studied by the method of agar dilution. Test solutions of each compound were prepared in a concentration of 1% using dimethylformamide as a solvent. Then they were diluted in a physiological solution to obtain the final experimental dilutions 1:100, 1:200, 1:400, and 1:800. The effect of these substances were compared with furacillin in a controllable study. The testing microbes used were gram positive bacteria St. aereus, gram negative bacteria E. Coli and Ps. aeruginosa, and Candida albicans fungi. The experiments used for this survey were meat-pentonlu agar (EPA) for cultivation of bacteria and Saburo environment for fungi. Each experiment used 1 ml of test solution on each plate 500 min. Add 2 drops of emulsified with microbes feel. All experimental samples were taken from the agar after 10, 20, 40, 60 minutes in the environment on the basis of Patrk planted. Bacteria were cultivated at a temperature of 37° C. for 1 day and the mushroom was kept in a thermostat for […] at a temperature of 28° C. Then the results were checked.

Ps. aeruginosa = test: Antimicrobial activity by agar dilution, Ps. aeruginosa; assay type: cell-based, Pseudomonas aeruginosa
Protocol: as §1

Candida albicans = test: Antimicrobial activity by agar dilution, Candida albicans; assay type: cell-based
Protocol: as §1

St. aereus = test: Antimicrobial activity by agar dilution, St. aereus; assay type: cell-based, Staphylococcus aureus
Protocol: as §1

Measured: inhibition activity

CN(C)CCCN1C2=C(C(=O)CCC2)C(c2cc3ccccc3nc2O)C2=C1CCCC2=O [9-(2-hydroxyquinoline-3-yl)-10-[3-(dimethylamino)propyl]-3,4,6,7,9,10-hexahydroacridine-1,8(2H,5H)-dione]
highest inhibition activity: all assays above
